# Patent US8513220B2, “Aromatic compounds having sphingosine-1-phosphonate (S1P) receptor activity” (Allergan, Inc., priority 2010, dated 2013)
# Experiments:
# [1] = target: T1, human S1P1 receptor (Homo sapiens, UniProt P21453); experiment: GTP γ35S binding assay for S1P1 activity; format: biochemical; settings: for activation at 5 µM: S1P1 receptor GTPγ^35S, read-out: % STIMULATION @ 5 μM; for EC50: S1P1 receptor, membranes, compounds 0.08 to 5,000 nM, read-out: GTPγ^35S EC50
# T1 construct: expressed in transfected cells; membranes used
# T1 sequence (P21453 whole entry): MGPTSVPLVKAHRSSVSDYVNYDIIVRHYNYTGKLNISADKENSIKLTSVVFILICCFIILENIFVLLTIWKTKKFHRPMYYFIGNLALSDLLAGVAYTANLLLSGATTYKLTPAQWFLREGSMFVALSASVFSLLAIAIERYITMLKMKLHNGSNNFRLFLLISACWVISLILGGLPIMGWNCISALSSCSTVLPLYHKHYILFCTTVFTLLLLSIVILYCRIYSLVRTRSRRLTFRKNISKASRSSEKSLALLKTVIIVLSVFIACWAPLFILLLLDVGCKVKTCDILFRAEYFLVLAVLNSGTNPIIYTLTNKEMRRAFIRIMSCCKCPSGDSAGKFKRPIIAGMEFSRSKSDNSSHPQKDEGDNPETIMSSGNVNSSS
# Experimental: Novel compounds were synthesized and tested for S1P1 activity using the GTP γ^35S binding assay. These compounds may be assessed for their ability to activate or block activation of the human S1P1 receptor in cells stably expressing the S1P1 receptor. GTP γ^35S binding was measured in the medium containing (mM) HEPES 25, pH 7.4, MgCl2 10, NaCl 100, dithitothreitol 0.5, digitonin 0.003%, 0.2 nM GTP γ^35S, and 5 μg membrane protein in a volume of 150 μl. Test compounds were included in the concentration range from 0.08 to 5,000 nM unless indicated otherwise. Membranes were incubated with 100 μM 5′-adenylylimmidodiphosphate for 30 min, and subsequently with 10 μM GDP for 10 min on ice. Drug solutions and membrane were mixed, and then reactions were initiated by adding GTP γ^35S and continued for 30 min at 25° C. Reaction mixtures were filtered over Whatman GF/B filters under vacuum, and washed three times with 3 mL of ice-cold buffer (HEPES 25, pH7.4, MgCl2 10 and NaCl 100). Filters were dried and mixed with scintillant, and counted for ^35S activity using a […]. Agonist-induced GTP γ^35S binding was obtained by subtracting that in the absence of agonist. Binding data were analyzed using a non-linear regression method. In case of antagonist assay, the reaction mixture contained 10 nM S1P in the presence of test antagonist at concentrations ranging from 0.08 to 5000 nM.
# Activity potency: S1P1 receptor from GTP γ^35S: nM, (EC50)
# [2] = system: lymphocytes in blood; experiment: Lymphopenia assay in mice (in vivo blood lymphocyte depletion); settings: female C57BL6 mice, 10 mg/Kg subcutaneous
# Experimental: Test drugs are prepared in a solution containing 3% (w/v) 2-hydroxy propyl β-cyclodextrin (HPBCD) and 1% DMSO to a final concentration of 1 mg/ml, and subcutaneously injected to female C57BL6 mice (CHARLES RIVERS) weighing 20-25 g at the dose of 10 mg/Kg. Blood samples are obtained by puncturing the submandibular skin with a Goldenrod animal lancet at 5, 24, 48, 72, and 96 hrs post drug application. Blood is collected into microvettes (SARSTEDT) containing EDTA tripotassium salt. Lymphocytes in blood samples are counted using a HEMAVET Multispecies Hematology System, HEMAVET HV950FS (Drew Scientific Inc.). (Hale, J. et al Bioorg. & Med. Chem. Lett. 14 (2004) 3351).
# A lymphopenia assay in mice; as previously described, was employed to measure the in vivo blood lymphocyte depletion after dosing with: • (3-{[5-(4-Hexyl-phenyl)-6-thiophen-2-yl-pyridin-2-ylmethyl]-amino}-propyl)-phosphonic acid, Compound 2 (FIG. 1); • (3-{[6-(5-Fluoro-thiophen-2-yl)-5-(4-hexyl-phenyl)-pyridin-2-ylmethyl]-amino}-propyl)-phosphonic acid, Compound 3 (FIG. 2); • (3-{[5-(4-Hexyl-3-propyl-phenyl)-6-thiophen-2-yl-pyridin-2-ylmethyl]-amino}-propyl)-phosphonic acid, Compound 4 (FIG. 3); • [3-({5-[4-(3-Phenyl-propyl)-phenyl]-6-thiophen-2-yl-pyridin-2-ylmethyl}-amino)-propyl]-phosphonic acid, Compound 5 (FIG. 4); • (3-{[5-(4-Hexyl-phenyl)-6-thiophen-3-yl-pyridin-2-ylmethyl]-amino}-propyl)-phosphonic acid, Compound 6 (FIG. 5); • (3-{[5-(4-Hexyl-phenyl)-6-oxazol-4-yl-pyridin-2-ylmethyl]-amino}-propyl)-phosphonic acid, Compound 7 (FIG. 6); • (3-{[6-Furan-2-yl-5-(4-hexyl-phenyl)-pyridin-2-ylmethyl]-amino}-propyl)-phosphonic acid, Compound 9 (FIG. 7); • [3-({6-Phenyl-5-[4-(3-phenyl-propyl)-phenyl]-pyridin-2-ylmethyl}-amino)-propyl]-phosphonic acid, Compound 14 (FIGS. 8) and • (3-{[5-(4-Hexyl-3-propyl-phenyl)-6-phenyl-pyridin-2-ylmethyl]-amino}-propyl)-phosphonic acid, Compound 16 (FIG. 9).
# These S1P agonist (or modulator) is useful for S1P-related diseases, and exemplified by the lymphopenia in vivo response. In general, test drugs Compound 3 and 16 were prepared in a solution containing 3% (w/v) 2-hydroxy propyl β-cyclodextrin (HPBCD) and 1% DMSO to a final concentration of 1 mg/ml, and subcutaneously injected to female C57BL6 mice (CHARLES RIVERS) weighing 20-25 g at the dose of 10 mg/Kg. Blood samples were obtained by puncturing the submandibular skin with a Goldenrod animal lancet at 5, 24, 48, and 72 hrs post drug application. Blood was collected into microvettes (SARSTEDT) containing EDTA tripotassium salt. Lymphocytes in blood samples were counted using a HEMAVET Multispecies Hematology System, HEMAVET HV950FS (Drew Scientific Inc.). Results are shown in the following figures below that depict lowered lymphocyte count after 5 hours (<1 number of lymphocytes 10^3/μL blood).
SMILES,activation at 5 µM [1],EC50 [1],number of lymphocytes found in the blood ([2]; after 24 h of drug application),number of lymphocytes found in the blood ([2]; after 72 h of drug application),number of lymphocytes found in the blood ([2]; after 48 h of drug application),number of lymphocytes found in the blood ([2]; after 5 h of drug application)
"CCCCCCc1ccc(-c2ccc(CNCCCP(=O)(O)O)nc2-c2cccs2)cc1 [Compound 2, (3-{[5-(4-Hexyl-phenyl)-6-thiophen-2-yl-pyridin-2-ylmethyl]-amino}-propyl)-phosphonic acid]",68.1%,5.26 nM,reduced,,,
"CCCCCCc1ccc(-c2ccc(CNCCCP(=O)(O)O)nc2-c2nccs2)cc1 [Compound 8, (3-{[5-(4-Hexyl-phenyl)-6-thiazol-2-yl-pyridin-2-ylmethyl]-amino}-propyl)-phosphonic acid]",89.3%,6.52 nM,,,,
"CCCCCCc1ccc(-c2ccc(CNCCCP(=O)(O)O)nc2-c2ccco2)cc1 [Compound 9, (3-{[6-Furan-2-yl-5-(4-hexyl-phenyl)-pyridin-2-ylmethyl]-amino}-propyl)-phosphonic acid]",88.6%,0.44 nM,,,reduced,
"O=P(O)(O)CCCNCc1ccc(-c2ccc(CCC(F)(F)C(F)(F)C(F)(F)C(F)(F)F)cc2)c(-c2ccccc2)c1 [Compound 11, (3-{[4-(3,3,4,4,5,5,6,6,6-Nonafluoro-hexyl)-[1,1′;2′,1″]terphenyl-4′-ylmethyl]-amino}-propyl)-phosphonic acid]",71.8%,416 nM,,,,
"O=P(O)(O)CCCNCc1ccc(-c2ccc(CCCc3ccccc3)cc2)c(-c2cccc(Cl)c2)n1 [Compound 13, [3-({6-(3-Chloro-phenyl)-5-[4-(3-phenyl-propyl)-phenyl]-pyridin-2-ylmethyl}-amino)-propyl]-phosphonic acid]",64%,2430 nM,,,,
"O=P(O)(O)CCCNCc1ccc(-c2ccc(CCCc3ccccc3)cc2)c(-c2ccccc2)n1 [Compound 14, [3-({6-Phenyl-5-[4-(3-phenyl-propyl)-phenyl]-pyridin-2-ylmethyl}-amino)-propyl]-phosphonic acid]",86.6%,93.8 nM,,,,reduced
"CCCCCOc1ccc(-c2ccc(CNCCCP(=O)(O)O)nc2-c2cccc(F)c2)cc1 [Compound 17, (3-{[6-(3-Fluoro-phenyl)-5-(4-pentyloxy-phenyl)-pyridin-2-ylmethyl]-amino}-propyl)-phosphonic acid]",83.9%,2200 nM,,,,
"CCCCCOc1ccc(-c2ccc(CNCCCP(=O)(O)O)nc2-c2ccc(F)cc2)cc1 [Compound 18, (3-{[6-(4-Fluoro-phenyl)-5-(4-pentyloxy-phenyl)-pyridin-2-ylmethyl]-amino}-propyl)-phosphonic acid]",104%,472 nM,,,,
"CCCCCCCCc1ccc(-c2ccc(CNCCCP(=O)(O)O)cc2-c2ccccc2)cn1 [Compound 22, (3-{[6-(6-Octyl-pyridin-3-yl)-biphenyl-3-ylmethyl]-amino}-propyl)-phosphonic acid]",89.7%,771 nM,,,,
"CCCCCCc1ccc(-c2ccc(CNCCCP(=O)(O)O)nc2-c2ccccc2)cc1 [Compound 27, (3-{[5-(4-Hexyl-phenyl)-6-phenyl-pyridin-2-ylmethyl]-amino}-propyl)-phosphonic acid]",112%,252 nM,,,,

# Now from value to compound, other results behind:
activation at 5 µM [1],EC50 [1],SMILES,number of lymphocytes found in the blood ([2]; after 24 h of drug application),number of lymphocytes found in the blood ([2]; after 72 h of drug application),number of lymphocytes found in the blood ([2]; after 48 h of drug application),number of lymphocytes found in the blood ([2]; after 5 h of drug application)
79.4%,317 nM,"CCCCCCc1ccc(-c2ccc(CNCCCP(=O)(O)O)cc2-c2ccccc2)nc1 [Compound 1, (3-{[6-(5-Hexyl-pyridin-2-yl)-biphenyl-3-ylmethyl]-amino}-propyl)-phosphonic acid]",,,,
111%,25.1 nM,"CCCCCCc1ccc(-c2ccc(CNCCCP(=O)(O)O)nc2-c2ccc(F)s2)cc1 [Compound 3, (3-{[6-(5-Fluoro-thiophen-2-yl)-5-(4-hexyl-phenyl)-pyridin-2-ylmethyl]-amino}-propyl)-phosphonic acid]",,reduced,,
79.1%,7.72 nM,"CCCCCCc1ccc(-c2ccc(CNCCCP(=O)(O)O)nc2-c2cccs2)cc1CCC [Compound 4, (3-{[5-(4-Hexyl-3-propyl-phenyl)-6-thiophen-2-yl-pyridin-2-ylmethyl]-amino}-propyl)-phosphonic acid]",,reduced,,
91.1%,2.36 nM,"O=P(O)(O)CCCNCc1ccc(-c2ccc(CCCc3ccccc3)cc2)c(-c2cccs2)n1 [Compound 5, [3-({5-[4-(3-Phenyl-propyl)-phenyl]-6-thiophen-2-yl-pyridin-2-ylmethyl}-amino)-propyl]-phosphonic acid]",,,reduced,
76.9%,9.19 nM,"CCCCCCc1ccc(-c2ccc(CNCCCP(=O)(O)O)nc2-c2ccsc2)cc1 [Compound 6, (3-{[5-(4-Hexyl-phenyl)-6-thiophen-3-yl-pyridin-2-ylmethyl]-amino}-propyl)-phosphonic acid]",,,reduced,
86.1%,0.87 nM,"CCCCCCc1ccc(-c2ccc(CNCCCP(=O)(O)O)nc2-c2cocn2)cc1 [Compound 7, (3-{[5-(4-Hexyl-phenyl)-6-oxazol-4-yl-pyridin-2-ylmethyl]-amino}-propyl)-phosphonic acid]",reduced,,,
64%,625 nM,"O=P(O)(O)CCCNCc1ccc(-c2ccc(CCCc3ccccc3)cc2)c(-c2ccccc2)c1 [Compound 12, (3-{[4-(3-Phenyl-propyl)-[1,1′;2′,1″]terphenyl-4′-ylmethyl]-amino}-propyl)-phosphonic acid]",,,,
73.1%,29.6 nM,"CCCCCCc1ccc(-c2ccc(CNCCCP(=O)(O)O)nc2-c2ccccc2)cc1CCC [Compound 16, (3-{[5-(4-Hexyl-3-propyl-phenyl)-6-phenyl-pyridin-2-ylmethyl]-amino}-propyl)-phosphonic acid]",,,,reduced
95.5%,358 nM,"CCCCCOc1ccc(-c2ccc(CNCCCP(=O)(O)O)nc2-c2ccccc2)cc1 [Compound 19, (3-{[5-(4-Pentyloxy-phenyl)-6-phenyl-pyridin-2-ylmethyl]-amino}-propyl)-phosphonic acid]",,,,
94.7%,833 nM,"CCCCCCc1ccc(-c2ccc(CNCCCP(=O)(O)O)cc2-c2ccccc2)cn1 [Compound 20, (3-{[6-(6-Hexyl-pyridin-3-yl)-biphenyl-3-ylmethyl]-amino}-propyl)-phosphonic acid]",,,,
